Converted amounts (≈) assume the structure as drawn.
Experiments:
[1] = Lipophilicity, log D of the compound at pH 7.4; assay type: physicochemical; settings: buffer
[2] = Kinetic solubility of the compound in second fluid of disintegration test of the Japanese Pharmacopoeia at pH 6.8 by HPLC analysis
[3] = Oral bioavailability in rat at 1 mg/kg; assay type: ADME, organism-based; settings: in vivo
[4] = Clearance in rat at 1 mg/kg, po or 0.1 mg/kg, iv; assay type: ADME, organism-based; settings: in vivo
[5] = AUC in rat at 1 mg/kg, po; assay type: ADME, organism-based; settings: in vivo
[6] = target: T1, Nuclear receptor ROR-gamma (Homo sapiens, UniProt P51449); experiment: Inverse agonist activity at RORgammat (unknown origin) expressed in human Jurkat cells assessed as inhibition of transcriptional activity after overnight incubation by human IL-17 ROR response element driven-bright-glo luciferase reporter gene assay; assay type: cell-based
T1 sequence (P51449 whole entry): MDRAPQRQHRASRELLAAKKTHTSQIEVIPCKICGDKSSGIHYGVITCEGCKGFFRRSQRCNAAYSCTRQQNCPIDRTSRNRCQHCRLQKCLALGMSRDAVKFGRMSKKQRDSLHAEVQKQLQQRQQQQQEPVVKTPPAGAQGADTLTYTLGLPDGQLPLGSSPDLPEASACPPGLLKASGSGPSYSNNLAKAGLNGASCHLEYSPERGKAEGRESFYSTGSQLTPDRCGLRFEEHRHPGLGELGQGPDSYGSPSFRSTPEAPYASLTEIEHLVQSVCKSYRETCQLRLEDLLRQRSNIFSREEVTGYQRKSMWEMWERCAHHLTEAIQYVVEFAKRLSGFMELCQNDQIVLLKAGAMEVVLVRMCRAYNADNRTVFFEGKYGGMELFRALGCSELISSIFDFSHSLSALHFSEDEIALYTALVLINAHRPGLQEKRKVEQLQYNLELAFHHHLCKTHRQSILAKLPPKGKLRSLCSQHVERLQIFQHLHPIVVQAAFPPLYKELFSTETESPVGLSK

[7] = target: T1, Nuclear receptor ROR-gamma; experiment: Displacement of BODIPY-labeled-(R)-N-(2-(3,5-difluoro-4-(trimethylsilyl)phenylamino)-1-(4-(methoxymethyl)phenyl)-2-oxoethyl)-5-(2-((1-(difluoroboryl)-3,5-dimethyl-1H-pyrrol-2-yl)methylene)-2H-pyrrol-5-yl)pentanamide from human His-tagged RORgammat after 20 mins by TR-FRET assay
tissue or blood = settings: Rattus norvegicus, Lewis
Description: Inverse agonist activity at RORgammat in Lewis rat whole blood assessed as inhibition of IL-17A production incubated for 1 hr followed by PMA/ionomycin stimulation measured after 24 hrs by ELISA

Rattus norvegicus = experiment: In vivo inverse agonist activity at RORgammat in po dosed Lewis rat experimental autoimmune encephalomyelitis model assessed as inhibition of IL-17A mRNA levels in popliteal lymph nodes administered twice daily for 5 days by qRT-PCR analysis; assay type: functional; settings: 120 h, read-out: MED

bioavailability [3] [%] | clearance [4] [mL/min/kg] | AUC [5] [ng·h/mL] | Compound | solubility kinetic [2] [µg/mL] | also measured
– | – | – | CCn1c2ccccc2c2cc(NC(=O)CC(C)CC(=O)Nc3ccc(C#N)c(Cl)c3)ccc21 (racemic) | 0.15 (≈ 0.317 µM) | logD [1]: 3.76
– | – | – | CCN1C(=O)COc2cc(NC(=O)CC(C)CC(=O)Nc3ccc(C#N)c(Cl)c3)ccc21 (racemic) | 12 (≈ 26.4 µM) | –
– | – | – | CCC1Oc2cc(NC(=O)CC(C)CC(=O)Nc3ccc(C#N)c(Cl)c3)ccc2N(CC)C1=O (racemic) | 5.6 (≈ 11.6 µM) | –
5.5 | 28.4 | 33 | CCn1c(=O)c2cc(NC(=O)CC(C)CC(=O)Nc3ccc(C#N)c(Cl)c3)ccc2n(CC2CC2)c1=O (racemic) | – | –
– | – | – | CCN1C(=O)C(C)Oc2cc(NC(=O)CC(C)CC(=O)Nc3ccc(C#N)c(Cl)c3)ccc21 (racemic) | 23 (≈ 49 µM) | logD [1]: 2.66
– | – | – | CCn1c2ccccc2c2cc(NC(=O)CC(C)CC(=O)Nc3ccccc3C#N)ccc21 (racemic) | – | IC50 [6]: > 30 µM; IC50 [7]: > 10 µM
2.7 | 44 | 10 | CCn1c(=O)n(CC2CC2)c(=O)c2cc(NC(=O)CC(C)CC(=O)Nc3ccc(C#N)c(Cl)c3)ccc21 (racemic) | – | –
– | – | – | CC(CC(=O)Nc1ccc(C#N)cc1)CC(=O)Nc1ccc2[nH]c3c(c2c1)CCCC3 (racemic) | 0.19 (≈ 0.458 µM) | –
– | – | – | CCn1c2c(c3cc(NC(=O)CC(C)CC(=O)Nc4ccc(C#N)cc4)ccc31)CCCC2 (racemic) | 0.06 (≈ 0.136 µM) | –
– | – | – | CCn1c(=O)oc2cc(NC(=O)CC(C)CC(=O)Nc3ccc(C#N)c(Cl)c3)ccc21 (racemic) | 0.9 (≈ 2.04 µM) | –
– | – | – | CCn1ccc2cc(NC(=O)CC(C)CC(=O)Nc3ccc(C#N)c(Cl)c3)ccc21 (racemic) | 0.1 (≈ 0.236 µM) | –
7.1 | 11.2 | 106 | CC(CC(=O)Nc1ccc(C#N)c(Cl)c1)CC(=O)Nc1ccc2c(c1)c(=O)n(CC1CC1)c(=O)n2CC1CC1 (racemic) | – | IC50 (tissue or blood): 0.057 µM; minimal effective dose (Rattus norvegicus): 100 mg/kg

Compound | bioavailability [3] [%] | clearance [4] [mL/min/kg] | AUC [5] [ng·h/mL] | solubility kinetic [2] [µg/mL] | also measured
CCn1c(=O)c2cc(NC(=O)CC(C)CC(=O)Nc3ccc(C#N)c(Cl)c3)ccc2n(CC)c1=O (racemic) | 6.2 | 26.8 | 39 | 42 (≈ 84.7 µM) | logD [1]: 2.99

Reference: ChEMBL document CHEMBL4219064, “Identification of novel quinazolinedione derivatives as RORγt inverse agonist” (Bioorg Med Chem, 2018)
